The subject of data set [1] is endogenous SK. The data set is described as follows: VEGF-stimulated SK activity in bovine RECs. The data set is classed as cell-based. The conditions noted are these: VEGF 50 ng/mL, 12 hours, serum-starved bovine RECs. Here is the method:
FIG. 5. Effects of Compound II on VEGF-stimulated SK activity in RECs. Bovine RECs were serum-starved for 24 hours and then left untreated or incubated with VEGF (50 ng/mL) in the presence of DMS (D) or the indicated concentration (in μM) of Compound II for 12 hours. [^3H]Sphingosine was then added to the cells and its conversion to [^3H]S1P was determined. Values represent the mean±SD of duplicate samples in a typical experiment.
(§1) Cellular S1P formation assay. Cells were grown to confluency in 24-well tissue culture plates and serum-starved for 24 hours as described above. Cells were then treated with 1% DMSO (as the drug vehicle), 20 μM dimethylsphingosine, or the indicated concentration of an SK inhibitor for 4 hours. The cells were then incubated with [^3H]sphingosine for 15 minutes, and the formation of [^3H]S1P was measured as previously described (French et al., Cancer Res 63: 5962 (2003)). In some assays, the cells were serum-starved for 24 hours and then treated with VEGF (50 ng/mL) alone or in the presence of an SK inhibitor for an additional 12 hours. [^3 H]Sphingosine was then added for 15 minutes, and its conversion to [^3H]S1P was measured as indicated above.
The effects of VEGF on SK activity in bovine RECs using the same cell-based assay as above, except that serum was removed from the cultures 24 hours before the addition of the SK inhibitor and VEGF were tested. […]

The subject of data set [2] is endogenous SK. The data set is described as follows: Cellular SK activity in bovine retinal endothelial cells. The data set is classed as cell-based. Conditions: 25 μg/mL (approximately 80 μM), 4 hours. Here is the method: FIG. 3. Inhibition of cellular SK activity in RECs. Bovine retinal endothelial cells were incubated with 20 μM dimethylsphingosine (DMS) or 25 μg/mL Compound I, Compound II or Compound V (approximately 80 μM for each compound) for 4 hours before the addition of 0.4 μCi of [^3H]sphingosine. After 15 minutes, cells were lysed and extracted with chloroform: methanol. The total amounts of [^3H]sphingosine in the organic phase and [^3H]S1P in the aqueous phase were then determined. Values represent the mean±SD of duplicate samples in a typical experiment.
as §1
A cell-based assay in which the phosphorylation of exogenously added [^3H]sphingosine to [^3H]S1P by endogenous SK can be quantified (French et al., Cancer Res 63: 5962 (2003)) was used to evaluate the effects of test compounds on the activity of SK in intact cells. In this assay, cells are incubated with [^3 H]sphingosine for an appropriate period of time, and then [^3H]sphingosine and [^3H]S1P (formed by endogenous SK activity) are separated by extraction and levels of both species are determined by scintillation counting. We have used a number of cell lines in this assay to confirm that the SK inhibitors are active in multiple intact cell systems. For example, human umbilical vein endothelial cells (HUVECs) are commonly used as a model of human vasculature. […] Similarly, the enzymatic activity of SK in bovine RECs, and its sensitivity to SK inhibitors were assessed. […] Each of inhibitors of SK (Compound I, Compound II and Compound V) was also active against the endogenous SK activity in the bovine RECs.

Data set [3] relates to VEGF-induced vascular permeability. As to the kind of experiment: VEGF-induced vascular leakage (Miles assay) in nude mice. The data set is classed as in vivo, mouse. Conditions: 100 mg/kg intraperitoneal, FIG. 7A.
Data set [4] has as its system human RECs. The data set is described as follows: Matrigel microvessel (tube) formation by human RECs. Conditions: control and VEGF-treated (50 ng/mL) cultures, 18 hours. The data set is classed as cell-based. The procedure: Since VEGF-mediated angiogenesis and vascular leakage are critical processes in the pathology of diabetic retinopathy, we evaluated the effects of Compound II on the VEGF-induced formation of microvessels by human RECs. The basement membrane-like substrate, Matrigel (Becton-Dickinson, Franklin Lakes, N.J.), was used to induce vessel-like tube formation from human RECs as in previous studies with other cell types (Lee et al., Cancer Lett 208: 89 (2004)). Briefly, 300 μL of Matrigel was pipetted into 24 well plates and allowed to gel at 37° C. for 30 minutes. Human RECs were briefly trypsinized and plated onto the layer of Matrigel at an approximate density of 25,000 cells/cm^2. VEGF (50 ng/mL in PBS) with either DMSO or an SK inhibitor was added to the media immediately. After 18 hours at 37° C., images were digitally captured with a Retiga Ex camera with bright-field microscopy using a Nikon Eclipse TE300 microscope.

Data set [5] deals with endogenous SK. The data set is described as follows: Cellular S1P formation assay in HFLS-RA cells. The data set is classed as cell-based, human. The conditions noted are these: read-out: drug concentration that decreases S1P formation by 50%. The procedure:
as §1
A cell-based assay in which the phosphorylation of exogenously added [^3H]sphingosine to [^3H]S1P by endogenous SK can be quantified (French et al., Cancer Res 63: 5962 (2003)) was used to evaluate the effects of test compounds on the activity of SK in intact cells. In this assay, cells are incubated with [^3 H]sphingosine for an appropriate period of time, and then [^3H]sphingosine and [^3H]S1P (formed by endogenous SK activity) are separated by extraction and levels of both species are determined by scintillation counting. […] Similarly, the enzymatic activity of SK in bovine RECs, and its sensitivity to SK inhibitors were assessed. […]

For data set [6], the system named is human RECs. The data set is described as follows: Cytotoxicity assay (sulforhodamine) toward human RECs. Conditions: 12 or 14 hours, serum-starved human RECs. The data set is classed as cell-based. Here is the method: FIG. 4. Toxicity of Compound II toward HRECs. Human RECs were serum-starved for 24 hours and then left untreated for 12 hours (▪) or incubated with 50 ng/mL VEGF (▴) for 14 hours in the presence of the indicated concentration of Compound II. These protocols were chosen to exactly match conditions in SK activity and proliferation experiments described below. After incubation, the percentages of cells that survived the treatment were determined. Values represent the mean i SD cell survival in triplicate samples in a typical experiment.
Cytotoxicity assays. Cells were grown to confluence in 96-well tissue culture plates and serum-starved for 24 hours as described above. Cells were then treated with varying concentrations of Compound II for 12 hours (to parallel the SK activity assays described above) or with varying concentrations of Compound II and 50 ng/mL of VEGF for 14 hours (to parallel the proliferation assays described below). Cell survival was determined using the sulforhodamine assay (Skehan et al., J Natl Cancer Inst 82: 1107 (1990)).
Since Compound II was the most efficacious inhibitor of SK in the RECs, this compound was used to characterize the biological effects of inhibiting SK in these cells. It was first necessary to determine the toxic effects of this compound toward cultures of RECs under conditions identical to subsequent signal studies. […]

Bounds are passed on as bounds.

Turning to `Oc1ccc(Nc2nc(-c3ccc(Cl)cc3)cs2)cc1` [Compound II], the “concentration completely inhibiting the SK activity response to VEGF” value in the data set with endogenous SK [1] was not below 1.3 µM. In addition, in the data set on endogenous SK [2], the “endogenous SK activity in bovine RECs” value is reported as “active”. Moreover, the “inhibition of the in vivo vascular leakage response to VEGF” value in data set [3] is “more than 80%”. Further, the “formation of networks and tubes” value in the data set with human RECs [4] is “marked reduction”. The IC50 with endogenous SK [5] came to 190 nM. The cell kill in the data set on human RECs [6] (concentrations up to approximately 16 μM) is less than 10%; with human RECs [6] (concentrations up to at least 65 μM) it was “less than 25%”.

The values are drawn from patent US20060270631A1, “Methods for the treatment and prevention of angiogenic diseases” (priority 2005, published 2006).
